Laboratory results as given in the supplement of paper PMC10307832.

compound: CN1CCN(CC1)C2=CC(=C(C=C2)NC3=NC(=C(S3)C(=O)C4=C(C=CC=C4Cl)Cl)N)OC [XMD14-99] + N=C(N)NC(=N)NCCc1ccccc1 [Phenformin] (partner 250 µM); assay: relative viability (nuclei count vs DMSO), 5 days (fraction); higher = more cells survive; conditions: first compound 0.08 µM
Summary of the method: (§1)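 Nuclei were stained with Hoechst during a one-step fixation (final 0.05% Triton X-100, 1% formaldehyde, 1 ug/ml Hoechst) carried out 5 days after dosing, then counted on 4× images. The cells, lung cancer lines in 1536-well plates, had been dosed by pin tool the day after seeding with one drug alone or a fixed anchor-drug dose plus five library-drug doses (not always all listed) in √10 steps. Relative viability is the nuclei count in treated wells divided by that in vehicle wells, and each value is the median of duplicate plates.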

Cell Line	relative viability
NCI-H1651	0.321
EPLC-272H	0.284
NCI-H23	0.767
NCI-H1792	0.286
NCI-H1355	0.518
NCI-H322M	0.787
NCI-H1437	0.321
NCI-H1755	0.587
NCI-H2085	0.668
HCC-15	0.51
NCI-H1793	0.367
PC-3 [JPC-3]	0.494
EKVX	0.261
LC-2-ad	0.611
NCI-H1944	0.194
NCI-H1975	0.379

same assay, conditions: first compound 0.8 µM

Cell Line	relative viability
A-427	0.31
NCI-H460	0.498
NCI-H727	0.43
NCI-H1734	0.376
NCI-H520	0.526
NCI-H2405	0.39
SW 1573	0.386
NCI-H1395	0.458
201T	0.441
NCI-H1915	0.385
HCC-827	0.37
LXF-289	0.502
NCI-H2347	0.422
NCI-H650	0.465
CAL-12T	0.567
NCI-H1651	0.319

Cell Line	relative viability
EPLC-272H	0.256
NCI-H23	0.85
NCI-H1792	0.379
NCI-H1355	0.473
NCI-H322M	0.834
NCI-H1437	0.316
NCI-H1755	0.57
NCI-H2085	0.68
HCC-15	0.499
NCI-H1793	0.337
PC-3 [JPC-3]	0.505
EKVX	0.246
LC-2-ad	0.554
NCI-H1944	0.203
NCI-H1975	0.41

same assay, conditions: first compound 2.53 µM

Cell Line	relative viability
A-427	0.259
NCI-H460	0.431
NCI-H727	0.419
NCI-H1734	0.368
NCI-H520	0.498
NCI-H2405	0.373
SW 1573	0.413
NCI-H1395	0.404
201T	0.422
NCI-H1915	0.36
HCC-827	0.377
LXF-289	0.487
NCI-H2347	0.406
NCI-H650	0.423
CAL-12T	0.525
NCI-H1651	0.301

Cell Line	relative viability
EPLC-272H	0.302
NCI-H23	0.741
NCI-H1792	0.234
NCI-H1355	0.424
NCI-H322M	0.699
NCI-H1437	0.244
NCI-H1755	0.578
NCI-H2085	0.681
HCC-15	0.419
NCI-H1793	0.249
PC-3 [JPC-3]	0.517
EKVX	0.227
LC-2-ad	0.58
NCI-H1944	0.173
NCI-H1975	0.325

same assay, conditions: first compound 8 µM

Cell Line	relative viability
A-427	0.231
NCI-H460	0.325
NCI-H727	0.374
NCI-H1734	0.381
NCI-H520	0.361
NCI-H2405	0.231
SW 1573	0.363
NCI-H1395	0.438
201T	0.41
NCI-H1915	0.335
HCC-827	0.308
LXF-289	0.457
NCI-H2347	0.251
NCI-H650	0.364
CAL-12T	0.412
NCI-H1651	0.272

Cell Line	relative viability
EPLC-272H	0.347
NCI-H23	0.659
NCI-H1792	0.167
NCI-H1355	0.36
NCI-H322M	0.627
NCI-H1437	0.237
NCI-H1755	0.523
NCI-H2085	0.572
HCC-15	0.321
NCI-H1793	0.288
PC-3 [JPC-3]	0.47
EKVX	0.23
LC-2-ad	0.505
NCI-H1944	0.157
NCI-H1975	0.317

compound: N[C@@H]1CCCN(c2c(/C=C3\SC(=O)NC3=O)cccc2-c2ccccc2)C1 [AZD1208] + N=C(N)NC(=N)NCCc1ccccc1 [Phenformin] (partner 250 µM); assay: as above; conditions: first compound 0.08 µM
Summary of the method: as §1

Cell Line	relative viability
A-427	0.318
NCI-H460	0.483
NCI-H727	0.359
NCI-H1734	0.392
NCI-H520	0.47
NCI-H2405	0.385
SW 1573	0.295
NCI-H1395	0.442
201T	0.434
NCI-H1915	0.366
HCC-827	0.423
LXF-289	0.507
NCI-H2347	0.302
NCI-H650	0.535
CAL-12T	0.517
NCI-H1651	0.328

Cell Line	relative viability
EPLC-272H	0.313
NCI-H23	0.793
NCI-H1792	0.371
NCI-H1355	0.479
NCI-H322M	0.761
NCI-H1437	0.324
NCI-H1755	0.586
NCI-H2085	0.679
HCC-15	0.431
NCI-H1793	0.314
PC-3 [JPC-3]	0.47
EKVX	0.23
LC-2-ad	0.585
NCI-H1944	0.197
NCI-H1975	0.413

same assay, conditions: first compound 0.253 µM

Cell Line	relative viability
A-427	0.367
NCI-H460	0.697
NCI-H727	0.497
NCI-H1734	0.426
NCI-H520	0.577
NCI-H2405	0.384
SW 1573	0.272
NCI-H1395	0.438
201T	0.444
NCI-H1915	0.402
HCC-827	0.436
LXF-289	0.55
NCI-H2347	0.46
NCI-H650	0.51
CAL-12T	0.698
NCI-H1651	0.387

Cell Line	relative viability
EPLC-272H	0.329
NCI-H23	0.828
NCI-H1792	0.233
NCI-H1355	0.469
NCI-H322M	0.75
NCI-H1437	0.258
NCI-H1755	0.616
NCI-H2085	0.677
HCC-15	0.491
NCI-H1793	0.453
PC-3 [JPC-3]	0.5
EKVX	0.247
LC-2-ad	0.604
NCI-H1944	0.201
NCI-H1975	0.449

same assay, conditions: first compound 0.8 µM

Cell Line	relative viability
A-427	0.257
NCI-H460	0.574
NCI-H727	0.514
NCI-H1734	0.336
NCI-H520	0.476
NCI-H2405	0.35
SW 1573	0.27
NCI-H1395	0.46
201T	0.429
NCI-H1915	0.372
HCC-827	0.425
LXF-289	0.472
NCI-H2347	0.363
NCI-H650	0.448
CAL-12T	0.557
NCI-H1651	0.299

Cell Line	relative viability
EPLC-272H	0.305
NCI-H23	0.627
NCI-H1792	0.179
NCI-H1355	0.416
NCI-H322M	0.731
NCI-H1437	0.267
NCI-H1755	0.623
NCI-H2085	0.675
HCC-15	0.459
NCI-H1793	0.342
PC-3 [JPC-3]	0.496
EKVX	0.258
LC-2-ad	0.52
NCI-H1944	0.179
NCI-H1975	0.393

same assay, conditions: first compound 2.53 µM

Cell Line	relative viability
A-427	0.323
NCI-H460	0.489
NCI-H727	0.532
NCI-H1734	0.293
NCI-H520	0.369
NCI-H2405	0.362
SW 1573	0.244
NCI-H1395	0.506
201T	0.427
NCI-H1915	0.348
HCC-827	0.418
LXF-289	0.528
NCI-H2347	0.347
NCI-H650	0.416
CAL-12T	0.522
NCI-H1651	0.315

Cell Line	relative viability
EPLC-272H	0.272
NCI-H23	0.798
NCI-H1792	0.258
NCI-H1355	0.447
NCI-H322M	0.741
NCI-H1437	0.277
NCI-H1755	0.593
NCI-H2085	0.688
HCC-15	0.428
NCI-H1793	0.307
PC-3 [JPC-3]	0.515
EKVX	0.256
LC-2-ad	0.534
NCI-H1944	0.172
NCI-H1975	0.404

same assay, conditions: first compound 8 µM

Cell Line	relative viability
A-427	0.262
NCI-H460	0.545
NCI-H727	0.524
NCI-H1734	0.264
NCI-H520	0.279
NCI-H2405	0.35
SW 1573	0.228
NCI-H1395	0.417
201T	0.351
NCI-H1915	0.352
HCC-827	0.378
LXF-289	0.518
NCI-H2347	0.389
NCI-H650	0.427
CAL-12T	0.576
NCI-H1651	0.249

Cell Line	relative viability
EPLC-272H	0.244
NCI-H23	0.609
NCI-H1792	0.138
NCI-H1355	0.392
NCI-H322M	0.782
NCI-H1437	0.314
NCI-H1755	0.502
NCI-H2085	0.668
HCC-15	0.316
NCI-H1793	0.274
PC-3 [JPC-3]	0.504
EKVX	0.228
LC-2-ad	0.519
NCI-H1944	0.136
NCI-H1975	0.359
